pEC50: −log10 of the molar value. Starred links: 1 amine or outer side, 2 acyl side, 3 side chain; linkers in the order of their positions; H or OH if unused. Non-standard residues stand in square brackets, D forms with d. Residues, ends and D or L forms follow the SMILES beside them. Groups on a side chain read outwards from the residue. *: point of attachment. C20 diacid = O=C(O)CCCCCCCCCCCCCCCCCCC(=O)*; γGlu = O=C(O)[C@H](CCC(=O)[*:2])N[*:1]; αMeF = C[C@](N)(Cc1ccccc1)C(=O)O; αMeL = CC(C)C[C@](C)(N)C(=O)O; AEEA = NCCOCCOCC(=O)O; Ac3c = NC1(C(=O)O)CC1; Aib = CC(C)(N)C(=O)O
Columns and labels:
[1] = target: T1, Human GIP R (Homo sapiens, UniProt P48546); experiment: cAMP (HTRF) activity in CHO cells stably overexpressing GIP receptor; type: cell-based; conditions: for Human GIP R Rel. A (Relative Activity): EC50 of human GIP / EC50 of compound; for pEC50: stable transfected cell cAMP activity, at least 3 independent tests
T1 construct: expressed in transfected cells; host or cells: CHO
T1 sequence (P48546 22-466): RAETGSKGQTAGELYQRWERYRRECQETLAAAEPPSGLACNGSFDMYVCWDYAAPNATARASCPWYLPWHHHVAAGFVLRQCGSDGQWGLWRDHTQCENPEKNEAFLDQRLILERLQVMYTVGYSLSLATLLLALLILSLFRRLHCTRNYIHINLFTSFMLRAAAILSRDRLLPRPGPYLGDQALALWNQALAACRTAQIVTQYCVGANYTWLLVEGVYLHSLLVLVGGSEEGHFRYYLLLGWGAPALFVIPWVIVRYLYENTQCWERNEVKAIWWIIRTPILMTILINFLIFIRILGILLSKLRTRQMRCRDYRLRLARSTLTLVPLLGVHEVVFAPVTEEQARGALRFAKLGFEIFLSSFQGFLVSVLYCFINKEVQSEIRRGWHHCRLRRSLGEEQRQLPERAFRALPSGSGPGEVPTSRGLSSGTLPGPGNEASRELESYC
Protocol: (§1) By measuring the cAMP signal response levels of the aforementioned cells, the agonistic activity of individual compound towards the corresponding receptor was determined. The intracellular cAMP content was measured using reagent kit available from Cisbio Corp. based on HTRF (homogeneous time-resolved fluorescence) technology.
(§2) The cell fluid was transferred to 10 ml of HBSS for resuspension, and centrifuged at 1000 rpm for 5 minutes at room temperature.
(§3) 10 μL cell suspension was added to each well in the 384 well plate. […] Using the ECHO liquid transfer system, 100 nL of the prepared compound solution was added to the corresponding cell suspensions in the 384 well plate, rotated and shaken at 1000 rpm for 1 minute to mix evenly, and then incubated at room temperature for 60 minutes. 10 μL of detection reagent was added to each well after drug incubation was completed, and incubation was performed in the kit at room temperature for 60 minutes. […] GraphPad Prism 5 plotting software was used to create compound concentration response curves and EC50 (nM) values was calculated.

[2] = target: T2, Human GCG R (Homo sapiens, UniProt P47871); experiment: cAMP (HTRF) activity in HEK-293 cells stably overexpressing human GCG receptor; type: cell-based; conditions: EC50 of human GCG / EC50 of compound
T2 construct: expressed in transfected cells; host or cells: HEK-293
Protocol: as §1, §2, §3

[3] = tested on: RIN-m5F cells; type: cell-based, rat; conditions: for Rel. A (Relative Activity) on RIN-m5F: relative to GLP-1(7-37)
Protocol: This experiment measured the cAMP level produced by the compound on RIN-mF cells.
Frozen […] cells were placed in a 37° C. constant temperature water bath for rapid thawing and recovery. The cell solution was transferred to 10 ml of HBSS for resuspension, and centrifuged at 1000 rpm for 5 minutes at room temperature.
(§4) 10 μL cell suspension was added to each well in the 384 well plate. […] Using the ECHO liquid transfer system, 100 nL of the prepared compound solution was added to the corresponding cell suspensions in the 384 well plate, rotated and shaken at 1000 rpm for 1 minute to mix evenly, and then incubated at room temperature for 60 minutes. 10 μL of detection reagent was added to each wells after drug incubation was completed, and incubation was performed for 60 minutes.

[4] = tested on: 3T3-L1 adipocytes; conditions: for Rel. A (Relative Activity) on 3T3-L1 adipocyte: relative to GIP
Protocol: Mouse 3T3-L1 precursor adipocytes can be induced to differentiate into mature adipocytes. […] After the cells became full and contacted with each other, DMEM differentiation medium containing 20% FBS, 0.5 mM IBMX, 0.4 ug/mL dexamethasone, and 5 ug/mL insulin was used to induce differentiation of 3T3-L1 adipocyte. After 5 days of induction and cultivation, DMEM medium containing […], 4 ug/ml insulin, and 10 uM rosiglitazone was used to continue induction and cultivation for 3 days. Then, DMEM medium containing 10% FBS was used to continue cultivation for 2-3 days to induce mature 3T3-L1 adipocytes.
The cAMP level produced by the compound on 3T3-L1 adipocytes was determined in this experiment. The tested compound solution was diluted step by step according to a concentration gradient of 3 times, to obtain a total of 10 series of concentration solutions. The solutions were added to induced mature 3T3-L1 adipocytes and incubated at room temperature for 60 minutes. 10 μL detection reagent in the kit was added to each well after drug incubation, and incubated at room temperature for another 60 minutes. […] GraphPad Prism 5 plotting software was used to create compound concentration-effect curves and calculation was performed.

[5] = tested on: human primary liver cells; type: cell-based; conditions: for Rel. A (Relative Activity) on human primary liver cells: relative to GCG
Protocol: The cAMP levels produced by compounds on human primary liver cells were determined in this experiment. Human primary liver cells were purchased from Lonza (cell product number HUCPG).
Frozen human primary liver cells were placed in a 37° C. constant temperature water bath for rapid thawing and recovery. The cell solution was transferred to 10 ml of HBSS for resuspension, and centrifuged at 1000 rpm for 5 minutes at room temperature.
as §4, with “well” for “wells”

[6] = target: Human GLP-1R (Homo sapiens, UniProt P43220); experiment: cAMP (HTRF) activity in HEK-293 cells stably overexpressing human GLP-1 receptor; type: cell-based; set-up: expressed in transfected cells; host or cells: HEK-293; conditions: for Human GLP-1R Rel. A (Relative Activity): EC50 of human GLP-1 (7-37) / EC50 of compound
Protocol: as §1, §2, §3

T2 sequence (P47871 26-477): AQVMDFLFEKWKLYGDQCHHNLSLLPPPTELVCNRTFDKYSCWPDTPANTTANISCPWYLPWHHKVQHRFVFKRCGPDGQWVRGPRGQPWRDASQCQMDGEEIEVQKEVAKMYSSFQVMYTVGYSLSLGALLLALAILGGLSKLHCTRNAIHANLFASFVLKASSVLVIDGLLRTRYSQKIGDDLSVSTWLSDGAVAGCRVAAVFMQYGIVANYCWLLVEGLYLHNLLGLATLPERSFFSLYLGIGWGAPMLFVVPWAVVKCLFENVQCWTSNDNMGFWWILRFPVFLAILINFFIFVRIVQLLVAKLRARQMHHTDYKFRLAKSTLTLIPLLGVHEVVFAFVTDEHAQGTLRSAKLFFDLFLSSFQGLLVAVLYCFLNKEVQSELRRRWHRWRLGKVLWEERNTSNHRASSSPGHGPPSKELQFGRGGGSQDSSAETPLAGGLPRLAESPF
Human GLP-1R, sequence (P43220 24-463): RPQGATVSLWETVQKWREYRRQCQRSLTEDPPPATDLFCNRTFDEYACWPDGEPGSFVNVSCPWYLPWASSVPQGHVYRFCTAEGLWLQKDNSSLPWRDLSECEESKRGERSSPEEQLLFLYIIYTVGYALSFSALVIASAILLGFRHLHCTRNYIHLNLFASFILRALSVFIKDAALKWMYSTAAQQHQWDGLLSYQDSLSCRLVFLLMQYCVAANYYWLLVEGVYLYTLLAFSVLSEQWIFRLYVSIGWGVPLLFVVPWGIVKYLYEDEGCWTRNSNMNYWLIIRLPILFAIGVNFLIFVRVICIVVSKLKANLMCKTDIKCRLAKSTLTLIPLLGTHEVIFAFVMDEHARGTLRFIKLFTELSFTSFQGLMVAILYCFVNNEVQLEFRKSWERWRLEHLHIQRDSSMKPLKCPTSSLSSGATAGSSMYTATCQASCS

Human GIP R Rel. A (Relative Activity) [1] [%]	pEC50 [1]	Human GCG R Rel. A (Relative Activity) [2] [%]	pEC50 [3]	pEC50 [5]	Human GLP-1R Rel. A (Relative Activity) [6] [%]	pEC50 ([6]; stable transfected cell cAMP activity, at least 3 independent tests)	SMILES	Rel. A (Relative Activity) on RIN-m5F [3] [%]	pEC50 [4]	Rel. A (Relative Activity) on 3T3-L1 adipocyte [4] [%]	Rel. A (Relative Activity) on human primary liver cells [5] [%]
1392.31	10.89	167.65	9.69	9.19	141.94	–	CC[C@H](C)[C@H](NC(=O)[C@H](Cc1ccccc1)NC(=O)[C@H](C)NC(=O)C(C)(C)NC(=O)[C@H](CCC(N)=O)NC(=O)[C@H](C)NC(=O)[C@H](CCCCNC(=O)COCCOCCNC(=O)COCCOCCNC(=O)CC[C@H](NC(=O)CCCCCCCCCCCCCCCCCCC(=O)O)C(=O)O)NC(=O)[C@H](CCCCN)NC(=O)[C@H](CC(=O)O)NC(=O)[C@H](CC(C)C)NC(=O)[C@](C)(CC(C)C)NC(=O)[C@@H](NC(=O)[C@H](CO)NC(=O)[C@H](Cc1ccc(O)cc1)NC(=O)[C@H](CC(=O)O)NC(=O)[C@H](CO)NC(=O)[C@@H](NC(=O)[C@](C)(Cc1ccccc1F)NC(=O)[C@@H](NC(=O)CNC(=O)[C@H](CCC(N)=O)NC(=O)C(C)(C)NC(=O)[C@@H](N)Cc1ccc(O)cc1)[C@@H](C)O)[C@@H](C)O)[C@@H](C)CC)C(=O)N[C@@H](CCC(=O)O)C(=O)N[C@@H](Cc1ccccc1)C(=O)N[C@@H](CC(C)C)C(=O)N[C@@H](CC(C)C)C(=O)N[C@@H](CCC(=O)O)C(=O)NCC(=O)N[C@@H](CCCNC(=N)N)C(=O)N1CCC[C@H]1C(=O)N[C@@H](CO)C(=O)N[C@@H](CO)C(=O)NC(C)(C)C(=O)N[C@@H](Cc1c[nH]cn1)C(=O)N1CCC[C@H]1C(=O)N1CCC[C@H]1C(=O)N1CCC[C@H]1C(=O)N[C@@H](CO)C(N)=O [Compound 25]	510.89	9.04	414.16	599.54
1645.45	10.96	37.01	9.11	8.28	183.33	–	CC[C@H](C)[C@H](NC(=O)[C@H](Cc1ccccc1)NC(=O)[C@H](C)NC(=O)C(C)(C)NC(=O)[C@H](CCC(N)=O)NC(=O)[C@H](C)NC(=O)[C@H](CCCCNC(=O)COCCOCCNC(=O)COCCOCCNC(=O)CC[C@H](NC(=O)CCCCCCCCCCCCCCCCCCC(=O)O)C(=O)O)NC(=O)[C@H](CCCCN)NC(=O)[C@H](CC(=O)O)NC(=O)[C@H](CC(C)C)NC(=O)[C@](C)(CC(C)C)NC(=O)[C@@H](NC(=O)[C@H](CO)NC(=O)[C@H](Cc1ccc(O)cc1)NC(=O)[C@H](CC(=O)O)NC(=O)[C@H](CO)NC(=O)[C@@H](NC(=O)[C@](C)(Cc1ccccc1)NC(=O)[C@@H](NC(=O)CNC(=O)[C@H](CCC(N)=O)NC(=O)C(C)(C)NC(=O)[C@@H](N)Cc1ccc(O)cc1)[C@@H](C)O)[C@@H](C)O)[C@@H](C)CC)C(=O)N[C@@H](CCC(=O)O)C(=O)N[C@@H](Cc1ccccc1)C(=O)N[C@@H](CC(C)C)C(=O)N[C@@H](CC(C)C)C(=O)N[C@@H](CCC(=O)O)C(=O)N[C@@H](CO)C(=O)NC(C)(C)C(=O)N1CCC[C@H]1C(=O)N[C@@H](CO)C(=O)N[C@@H](CO)C(=O)NCC(=O)N[C@@H](C)C(=O)N1CCC[C@H]1C(=O)N1CCC[C@H]1C(=O)NC1(C(=O)N[C@@H](CO)C(N)=O)CC1 [Compound 28] (H-Y[Aib]QGT[αMeF]TSDYSI[αMeL]LDKK([AEEA-AEEA-γGlu-C20 diacid])AQ[Aib]AFIEFLLES[Aib]PSSGAPP[Ac3c]S-NH2)	131.63	8.01	38.61	74.74
58.58	–	82.61	9.20	8.53	275.00	10.80	CC[C@H](C)[C@H](NC(=O)[C@H](Cc1ccccc1)NC(=O)[C@H](C)NC(=O)C(C)(C)NC(=O)[C@H](CCC(N)=O)NC(=O)[C@H](C)NC(=O)[C@H](CCCCNC(=O)COCCOCCNC(=O)COCCOCCNC(=O)CC[C@H](NC(=O)CCCCCCCCCCCCCCCCCCC(=O)O)C(=O)O)NC(=O)[C@H](CCCCN)NC(=O)[C@H](CC(=O)O)NC(=O)[C@H](CC(C)C)NC(=O)[C@H](Cc1ccccc1)NC(=O)[C@@H](NC(=O)[C@H](CO)NC(=O)[C@H](Cc1ccc(O)cc1)NC(=O)[C@H](CC(=O)O)NC(=O)[C@H](CO)NC(=O)[C@@H](NC(=O)[C@](C)(Cc1ccccc1)NC(=O)[C@@H](NC(=O)CNC(=O)[C@H](CCC(N)=O)NC(=O)C(C)(C)NC(=O)[C@@H](N)Cc1ccc(O)cc1)[C@@H](C)O)[C@@H](C)O)[C@@H](C)CC)C(=O)N[C@@H](CCC(=O)O)C(=O)N[C@@H](Cc1ccc(O)cc1)C(=O)N[C@@H](CC(C)C)C(=O)N[C@@H](CC(C)C)C(=O)N[C@@H](CCC(=O)O)C(=O)N[C@@H](CO)C(=O)NC(C)(C)C(=O)N1CCC[C@H]1C(=O)N[C@@H](CO)C(=O)N[C@@H](CO)C(=O)NCC(=O)N[C@@H](C)C(=O)N1CCC[C@H]1C(=O)N1CCC[C@H]1C(=O)NC1(C(=O)N[C@@H](CO)C(N)=O)CC1 [Compound 29] (H-Y[Aib]QGT[αMeF]TSDYSIFLDKK([AEEA-AEEA-γGlu-C20 diacid])AQ[Aib]AFIEYLLES[Aib]PSSGAPP[Ac3c]S-NH2; N-terminus assumed)	163.03	7.69	18.41	132.89

— patent US20250129135A1, “Multi-Agonist and Use Thereof” (priority 2021, published 2025)
